From publication PMC8536644, “Enigmatic mechanism of the N-vinylpyrrolidone hepatocarcinogenicity in the rat” (Archives of Toxicology, 2021)
“And” between values parts separate entries of the source, which are not always exact repeats. Equal values may be shown once.

Assays:
[1] = Trypan Blue viability of the single cell suspension, lung; type: in vivo, rat; conditions: Wistar, rat, in vivo, po, 200 mg/kg
rat lung cells = assay: Comet assay, conventional (no FPG), lung; conditions: no FPG; for Increase of the TI vs vehicle control / Hedgehogs/100 cells (mean ± SD) / TI (%) (mean ± SD) / TI (%), mean of medians from 2 slides: lung; for Increase of the TI vs vehicle control: p ≤ 0.01; for Hedgehogs/100 cells (mean ± SD) / TI (%) (mean ± SD) / TI (%), mean of medians from 2 slides: 200 mg/kg bw oral, once; for TI (%), mean of medians from 2 slides: individual animals
Protocol: Animals were anesthetized by 3.5% isoflurane (approximately 3 min, evaporator Dräger Vapor 19.3) and then killed by cervical dislocation. The liver was removed and its left lateral lobe used for the Comet assay. The remainder of the liver was washed in saline and then in two aliquots shock frozen in liquid nitrogen and stored at − 80 °C for later examinations. Subsequently the lung was removed from the dead animal. Its left lobe was used for the Comet assay and the remainder treated as described above for the liver. Thereafter the femora were removed for the preparation of the bone marrow.
The Comet assay was performed under alkaline conditions according to the principles described by Singh et al. ([1988]) and Tice et al. ([2000]).
Liver and lung cells were obtained essentially as described by Hartmann et al. ([2004]) and by the Japanese Center for the Validation of Alternative Methods (JaCVAM [2009]). Single cells were obtained within 1 h after killing of the animals in order to minimize DNA damage during the preparation.
The organ parts (see above) were washed in mincing buffer (50 mM EDTA in HBSS [without Ca^2+ and Mg^2+] pH 7.5: DMSO 9:1 (v/v), the latter added shortly before use, stored at 4 °C), cut into 1 to 2-mm pieces in ice-cold mincing buffer and transferred to a cell sieve with 70-µm pores. The viability of the cell suspension was evaluated by the Trypan Blue Assay (Strober [2001]).
100 µL of the obtained cell suspension was mixed at 37 °C with 900 µL Low Melting Agarose (LMA) (0.7% agarose in phosphate-buffered saline [PBS] [Biochrom, Berlin, Germany] without Ca^2+ and Mg^2+). 100 µL of this mixture was transferred to a slide, which had been coated with Normal Melting Agarose (NMA) (0.6% agarose in PBS without Ca^2+ and Mg^2+). The slides were protected with a cover slip and the agarose was hardened at approximately 4 °C. The cover slips were then removed and the slides put over night at 4 °C into lysis buffer (2.5 M NaCl, 125 mM NaOH, 127 mM EDTA, 10 mM Tris/NaOH, pH 10; 1% Triton X-100 and 10% DMSO (v/v), the latter two added before use) in order to lyse the cell membrane, nuclear membrane and remove the histone.
The then following procedures were performed in a shaded room to minimize UV-mediated DNA damage during the procedures.
Remaining lysis buffer or FPG buffer was removed by immersing/washing the slides in PBS (without Ca^2+ and Mg^2+).
The slides were then placed into the electrophoresis chamber, which was cooled and protected from light. Slides were covered with electrophoresis buffer (0.3 M NaOH, 1 mM EDTA, pH > 13) carefully avoiding air bubbles. The DNA was allowed to unwind (20 min). Thereafter the electrophoresis was started (25 V, 300 mA, […], 30 min). The slides were then washed (2 times 5 min) in neutralization buffer (0.4 M Tris/HCl, pH 7.5), dehydrated and fixed in 100% ethanol (1 min), dried at room temperature overnight and stored at room temperature protected from dust.
Quantitative evaluation of the Comet assays was performed by fluorescence microscopy after DNA staining with ethidium bromide.

rat liver cells = assay: Trypan Blue viability of the single cell suspension, liver; type: in vivo; conditions: Wistar, rat, in vivo, po, 200 mg/kg, 24 h
[2] = system: polychromatic erythrocytes of rat bone marrow; assay: Micronucleus test in rat bone marrow (OECD 474); conditions: for MN/ 1000 PCE Mean ± SD / MN/ 1000 PCE Range / PCE/1000 Erythrozyten Mean ± SD / PCE/NCE quotient (%): 200 mg/kg body weight oral
Protocol: 13-mm filter disks with a pore size of 8 µm were placed on the bottom of 5-mL plastic syringes. Approximately 500 mg of a mixture consisting of equal parts microcrystalline cellulose (Sigmacell®, Typ 50) and alpha-cellulose fibers was added up to the 2-mL mark.
Bone marrow preparation was performed according to published methods (Romagna and Staniforth [1989]; Salamone et al. [1980]). The soft tissue was removed from the femora and the epiphyses were cut off. The bone marrow was rinsed off the diaphyses with approximately 3 mL 37 °C-warm fetal calf serum (FCS) (Biochrom, Berlin, Germany) per femur, placed on the above-described cellulose column and eluted with 3 mL of Hank's Balanced Salt Solution (HBSS) (Biochrom, Berlin, Germany) (with Ca^2+ und Mg^2+). The eluate was centrifuged at 300 g for 5 min and the pellet was suspended in […] FCS. From this suspension three portions per femur were individually placed on slides, air-dried and then stained for 4 min in May-Grunwald solution 1 (Merck, Darmstadt, Germany), followed by 4 min in May–Grunwald solution 2 (May-Grunwald solution 1 diluted 1:1 with aqua bidest.), rinsed in aqua bidest and then stained with Giemsa solution (7.5% dilution derived from Giemsa obtained from Merck, Darmstadt, Germany) for 15 min. Subsequently, the slides were washed twice with aqua bidest, then dried, cleared in xylene and covered with Corbit-Balsam (I. Hecht, Kiel-Hasse, Germany).
2000 polychromatic erythrocytes (PCE) per animal (1000 per slide) were evaluated at 1000-fold magnification under immersion oil for the presence/absence of large and small micronuclei as well as the proportion of PCE among the total erythrocytes. Statistical significance of differences between treated versus untreated groups was evaluated by the one-sided Wilcoxon test (using the program MUKERN). The result is regarded as positive when the following criteria are fulfilled: 1.
2000 PCEs were analyzed for micronuclei per animal.

Compound CCOS(C)(=O)=O [EMS, ethyl methanesulfonate, reference compound] has a viability at 24 h ([1]; female, Individual viability (%)) of 99%, a viability at 24 h ([1]; female, Viability (%) (mean ± SD)) of 99 ± 1% and a viability at 24 h ([1]; male, Individual viability (%)) of 99%. The viability at 24 h ([1]; male, Viability (%) (mean ± SD)) was 99 ± 1%, the “Hedgehogs per 100 cells, averaged for both genders” value (rat lung cells; lung cells, 200 mg/kg) was 9 per 100 cells and the “Increase of the TI vs vehicle control” value (rat lung cells; female, 200 mg/kg) was 21 fold. The “Hedgehogs/100 cells (mean ± SD)” value (rat lung cells; female) was 9 ± 5 /100 cells, the “TI (%) (mean ± SD)” value (rat lung cells; female) was 16.7 ± 2.83% and the “TI (%), mean of medians from 2 slides” value (rat lung cells; female, 200 mg/kg) was 13.2% and 13.0% and 18.7% and 18.8% and 17.8%. The “Increase of the TI vs vehicle control” value (rat lung cells; male, 200 mg/kg) was 17 fold, the “Hedgehogs/100 cells (mean ± SD)” value (rat lung cells; male) was 9 ± 4 /100 cells and the “TI (%) (mean ± SD)” value (rat lung cells; male) was 19.3 ± 5.15%. The “TI (%), mean of medians from 2 slides” value (rat lung cells; male, 200 mg/kg) was 20.7% and 14.6% and 26.5% and 13.1% and 23.3% and 17.8%, the “Individual viability (%)” value (rat liver cells; female) was 97% and the “Individual viability (%)” value (rat liver cells; male) was 94%. For the same compound, the “MN/ 1000 PCE Mean ± SD” value ([2]; female) was 11.8 ± 12.3 MN/ 1000 PCE, the “MN/ 1000 PCE Range” value ([2]; female) was 9.0–14.5 MN/ 1000 PCE and the “PCE/1000 Erythrozyten Mean ± SD” value ([2]; female) was 563 ± 29 PCE/1000 Erythrozyten. For the same compound, the “PCE/NCE quotient (%)” value ([2]; female) was 89%, the “MN/ 1000 PCE Mean ± SD” value ([2]; male) was 14.5 ± 6.0 MN/ 1000 PCE and the “MN/ 1000 PCE Range” value ([2]; male) was 3.0–20.0 MN/ 1000 PCE. The “PCE/1000 Erythrozyten Mean ± SD” value ([2]; male) was 616 ± 50 PCE/1000 Erythrozyten, the “PCE/NCE quotient (%)” value ([2]; male) was 101% and the “Micronuclei in PCE” value ([2]; 200 mg/kg body weight, independent of gender) was 13.2 ± 4.6 ‰. The “Micronuclei in PCE” value ([2]; female, Wistar Crl:WI (Han), rat, in vivo, 24 h) was 11.8 ± 2.3 ‰ and the “Micronuclei in PCE” value ([2]; male, Wistar Crl:WI (Han), rat, in vivo, 24 h) was 14.5 ± 6.0 ‰.
